Reference: publication PMC12615753, “Glutathione as a taste modulator: molecular mechanisms of interaction with umami and sweet taste receptors” (Food Chemistry: Molecular Sciences, 2025)

Target: T1, hTAS1R2/hTAS1R3 (Homo sapiens, UniProt Q7RTX0+Q8TE23)
T1 construct: expressed in transfected cells
T1 sequence (Q8TE23 20-839): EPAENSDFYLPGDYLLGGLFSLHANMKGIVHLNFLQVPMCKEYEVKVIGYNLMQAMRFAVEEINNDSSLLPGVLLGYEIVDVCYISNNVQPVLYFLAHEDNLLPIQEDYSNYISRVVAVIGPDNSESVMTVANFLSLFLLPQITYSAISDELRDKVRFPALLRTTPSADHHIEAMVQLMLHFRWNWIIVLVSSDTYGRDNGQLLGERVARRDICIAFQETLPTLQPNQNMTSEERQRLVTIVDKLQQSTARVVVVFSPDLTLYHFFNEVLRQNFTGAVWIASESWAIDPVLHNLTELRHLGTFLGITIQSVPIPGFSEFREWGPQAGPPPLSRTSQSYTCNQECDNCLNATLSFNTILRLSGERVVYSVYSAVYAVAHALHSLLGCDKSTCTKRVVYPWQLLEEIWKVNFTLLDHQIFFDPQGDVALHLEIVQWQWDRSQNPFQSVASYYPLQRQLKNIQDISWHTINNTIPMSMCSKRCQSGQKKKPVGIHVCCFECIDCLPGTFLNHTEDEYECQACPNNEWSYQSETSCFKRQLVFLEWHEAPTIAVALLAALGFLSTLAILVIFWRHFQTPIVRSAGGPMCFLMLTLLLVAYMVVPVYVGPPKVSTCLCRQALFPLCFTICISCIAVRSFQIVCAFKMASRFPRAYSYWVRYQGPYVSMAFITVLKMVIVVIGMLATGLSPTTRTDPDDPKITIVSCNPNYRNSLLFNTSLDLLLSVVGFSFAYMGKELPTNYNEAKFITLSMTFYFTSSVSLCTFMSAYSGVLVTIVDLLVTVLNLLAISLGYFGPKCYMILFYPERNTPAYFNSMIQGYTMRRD
T1 sequence (Q7RTX0 21-852): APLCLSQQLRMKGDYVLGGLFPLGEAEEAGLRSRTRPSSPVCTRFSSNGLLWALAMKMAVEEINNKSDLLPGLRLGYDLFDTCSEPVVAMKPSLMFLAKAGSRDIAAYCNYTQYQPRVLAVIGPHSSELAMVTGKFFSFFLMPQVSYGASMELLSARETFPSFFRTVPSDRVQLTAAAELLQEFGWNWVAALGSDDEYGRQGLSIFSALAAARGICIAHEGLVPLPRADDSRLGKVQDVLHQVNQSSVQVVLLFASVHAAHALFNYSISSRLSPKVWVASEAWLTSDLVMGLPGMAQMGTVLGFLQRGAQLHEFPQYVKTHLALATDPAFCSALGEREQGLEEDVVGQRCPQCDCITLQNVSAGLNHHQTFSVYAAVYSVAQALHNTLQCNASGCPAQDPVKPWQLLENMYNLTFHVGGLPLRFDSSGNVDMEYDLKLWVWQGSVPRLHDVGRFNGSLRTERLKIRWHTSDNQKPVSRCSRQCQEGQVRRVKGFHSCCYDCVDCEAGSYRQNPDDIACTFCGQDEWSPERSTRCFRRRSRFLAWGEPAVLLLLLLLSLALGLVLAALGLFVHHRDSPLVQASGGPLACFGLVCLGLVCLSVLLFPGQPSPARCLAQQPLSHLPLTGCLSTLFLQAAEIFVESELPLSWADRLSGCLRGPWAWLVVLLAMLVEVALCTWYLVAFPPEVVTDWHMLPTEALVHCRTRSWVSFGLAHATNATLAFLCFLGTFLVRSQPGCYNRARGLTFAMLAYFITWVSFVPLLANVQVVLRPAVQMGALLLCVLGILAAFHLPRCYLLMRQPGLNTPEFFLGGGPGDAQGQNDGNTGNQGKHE
Test: Calcium assay in transfected HEK293T/17 cells, sweet taste receptor
Assay type: cell-based
Conditions: for EC50: agonist alone, Fig. 2
Protocol: HEK293T/17 cells (ATCC CRL-11268) were seeded into clear bottom black 96-well plates coated with poly-D-lysine at a density of 32500 cells/well in 100 μL of DMEM containing 4.5 g/L glucose and supplemented with penicillin/streptomycin, 2 mM GlutaMAX and 10 % dialyzed fetal bovine serum. The plates were incubated for 24 h at 37 °C and 7.3 % CO2 in a humidified atmosphere. After incubation, using Fugene® 4 K (0.46 μL/well, Promega, Illkirch, France), the cells were transiently transfected with pcDNA3-hTAS1R1-WT (60 ng/well) or TAS1R1 mutants, pcDNA4-rTAS1R3 (60 ng/well), pcDNA3-Gα15i2 (10 ng/well), and pGP-CMV-GCaMP6s (Addgene #40753; 10 ng/well) as a genetically encoded calcium indicator. Twenty-four hours after transfection, the HEK293T/17 cells were rinsed with 100 μL of C1 buffer (130 mM NaCl, 5 mM KCl, 10 mM HEPES, 2 mM CaCl2, and 5 mM sodium pyruvate, pH 7.4). For each molecule tested, a semi-logarithmic concentration range was created consisting of seven increasing concentrations and a negative control (zero dose) made of buffer C1. […] After 20 s of basal fluorescence calcium measurement, the cells were stimulated via automatic injection of a range of compounds in eight wells, and the signal emission was recorded for an additional 70 s, via a FlexStation 3® fluorometric microplate reader (Molecular Devices, San Jose, CA, USA). […] The emitted fluorescence was measured at a wavelength of 510 nm after excitation at 488 nm. […] For each well, the decrease in the raw fluorescence as the relative fluorescence changed was calculated as ΔF/F0. Replicates were averaged for the wells subjected to the same stimuli, the background signal was subtracted, and the fluorescence changes in mock-transfected cells were subtracted. The half-maximal effective concentration (EC50) and maximal signal amplitude (max ∆F/F0) were calculated via non-linear regression of the sigmoidal function four-parameter logistic equation [f(x) = min + (max − min)/(1 + (x/EC50)^nH)] via SigmaPlot 15.0 software (Grafiti LLC, Palo Alto, CA, USA). […]

`OC[C@H]1O[C@H](O[C@]2(CCl)O[C@H](CCl)[C@@H](O)[C@@H]2O)[C@H](O)[C@@H](O)[C@H]1Cl` [sucralose, reference compound] was tested, and the EC50 was 61 ± 2 µM.

In the case of `N[C@@H](CCC(=O)N[C@@H](CS)C(=O)NCC(=O)O)C(=O)O` [GSH, γ-L-glutamyl-L-cysteinyl-glycine], the “effect of 10 mM GSH on the response to sucralose” value is reported as “unaffected” and the EC50 is reported as 591 ± 344 µM.
